Data from ChEMBL document CHEMBL5465560, “Selectivity Literature for EUbOPEN Chemogenomic Library” (2024).
Each block holds one compound with its values, some of them ahead of it.

Tests used:
[1] = molecular target: Myosin-IIIa (Homo sapiens) (UniProt Q8NEV4); assay: Selectivity interaction (KinomeScan (DiscoverX)) EUB0001049a MYO3A; conditions: at 1 µM
[2] = molecular target: Calcium/calmodulin-dependent protein kinase type II subunit gamma (Homo sapiens) (UniProt Q13555); assay: Selectivity interaction (Ambit KINOMEscan and KiNATiv profiling in Jurkat cells) EUB0000090b CAMK2G; format: cell-based; conditions: at 1 µM
Sequence of Calcium/calmodulin-dependent protein kinase type II subunit gamma (Homo sapiens) (Q13555 whole entry): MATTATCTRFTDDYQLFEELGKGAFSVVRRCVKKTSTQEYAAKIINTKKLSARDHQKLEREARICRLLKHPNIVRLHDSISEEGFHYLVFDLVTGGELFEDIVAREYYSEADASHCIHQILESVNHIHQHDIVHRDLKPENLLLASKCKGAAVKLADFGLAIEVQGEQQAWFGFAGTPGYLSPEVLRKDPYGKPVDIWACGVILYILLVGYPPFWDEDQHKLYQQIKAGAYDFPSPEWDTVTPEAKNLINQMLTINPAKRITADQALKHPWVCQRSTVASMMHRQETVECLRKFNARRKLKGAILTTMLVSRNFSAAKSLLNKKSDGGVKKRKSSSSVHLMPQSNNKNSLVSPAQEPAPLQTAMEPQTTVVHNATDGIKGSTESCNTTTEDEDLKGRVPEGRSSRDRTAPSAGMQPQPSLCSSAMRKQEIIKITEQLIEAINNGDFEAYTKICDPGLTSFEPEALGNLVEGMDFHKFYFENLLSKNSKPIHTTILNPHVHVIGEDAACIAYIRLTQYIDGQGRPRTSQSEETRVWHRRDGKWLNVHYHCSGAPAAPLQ

[3] = molecular target: T1, Dual specificity mitogen-activated protein kinase kinase 4 (Homo sapiens) (UniProt P45985); assay: Selectivity interaction (KinomeScan (DiscoverX)) EUB0001550a MAP2K4; conditions: at 1 µM
T1 sequence (whole entry): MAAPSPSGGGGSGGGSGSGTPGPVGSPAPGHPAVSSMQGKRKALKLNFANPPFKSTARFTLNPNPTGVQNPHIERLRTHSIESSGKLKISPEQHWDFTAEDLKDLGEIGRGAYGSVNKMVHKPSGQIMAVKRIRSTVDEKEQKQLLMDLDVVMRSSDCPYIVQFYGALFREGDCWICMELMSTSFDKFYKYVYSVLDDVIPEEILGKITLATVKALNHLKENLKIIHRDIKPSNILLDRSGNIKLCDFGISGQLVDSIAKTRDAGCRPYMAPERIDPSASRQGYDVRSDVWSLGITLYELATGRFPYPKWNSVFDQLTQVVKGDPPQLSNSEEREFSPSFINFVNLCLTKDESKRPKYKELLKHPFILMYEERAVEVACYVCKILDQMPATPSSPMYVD

[4] = molecular target: T2, Serine/threonine-protein kinase Sgk3 (Homo sapiens) (UniProt Q96BR1); assay: Selectivity interaction (Kinase panel (Z-LYTE Assay)) EUB0001632a SGK3; conditions: at 10 µM
T2 sequence (whole entry): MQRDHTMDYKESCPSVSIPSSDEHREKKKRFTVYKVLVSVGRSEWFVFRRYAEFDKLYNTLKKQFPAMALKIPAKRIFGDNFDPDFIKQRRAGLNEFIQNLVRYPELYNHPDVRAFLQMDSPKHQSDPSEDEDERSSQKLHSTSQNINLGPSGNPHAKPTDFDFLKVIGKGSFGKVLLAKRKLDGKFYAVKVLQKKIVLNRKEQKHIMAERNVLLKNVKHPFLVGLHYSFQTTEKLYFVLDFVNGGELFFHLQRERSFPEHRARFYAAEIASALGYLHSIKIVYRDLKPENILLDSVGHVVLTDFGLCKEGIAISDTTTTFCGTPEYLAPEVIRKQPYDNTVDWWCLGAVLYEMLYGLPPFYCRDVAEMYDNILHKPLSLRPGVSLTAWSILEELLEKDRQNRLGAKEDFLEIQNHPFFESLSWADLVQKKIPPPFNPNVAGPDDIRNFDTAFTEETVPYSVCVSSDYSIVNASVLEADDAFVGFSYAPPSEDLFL

[5] = molecular target: T3, Serine/threonine-protein kinase ULK3 (Homo sapiens) (UniProt Q6PHR2); assay: Selectivity interaction (LanthaScreen Eu Kinase Binding Assay) EUB0001632a ULK3; conditions: at 10 µM
T3 sequence (whole entry): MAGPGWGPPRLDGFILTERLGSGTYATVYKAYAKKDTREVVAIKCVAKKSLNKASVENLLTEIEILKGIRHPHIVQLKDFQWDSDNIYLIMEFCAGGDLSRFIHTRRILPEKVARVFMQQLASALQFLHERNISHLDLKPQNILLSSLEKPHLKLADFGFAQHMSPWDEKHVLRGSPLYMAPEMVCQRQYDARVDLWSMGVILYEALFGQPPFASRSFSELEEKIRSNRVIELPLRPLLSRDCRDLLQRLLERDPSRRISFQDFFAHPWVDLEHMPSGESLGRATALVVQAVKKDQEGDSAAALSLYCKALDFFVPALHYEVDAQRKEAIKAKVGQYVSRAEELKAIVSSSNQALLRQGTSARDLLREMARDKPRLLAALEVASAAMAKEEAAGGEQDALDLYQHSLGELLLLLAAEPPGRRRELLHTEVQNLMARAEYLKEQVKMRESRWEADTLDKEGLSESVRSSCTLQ

[6] = molecular target: Interleukin-1 receptor-associated kinase 1 (Homo sapiens) (UniProt P51617); assay: Selectivity interaction (KinomeScan (DiscoverX)) EUB0000229b IRAK1; conditions: at 10 µM
Sequence of Interleukin-1 receptor-associated kinase 1 (Homo sapiens) (P51617 whole entry, looked up): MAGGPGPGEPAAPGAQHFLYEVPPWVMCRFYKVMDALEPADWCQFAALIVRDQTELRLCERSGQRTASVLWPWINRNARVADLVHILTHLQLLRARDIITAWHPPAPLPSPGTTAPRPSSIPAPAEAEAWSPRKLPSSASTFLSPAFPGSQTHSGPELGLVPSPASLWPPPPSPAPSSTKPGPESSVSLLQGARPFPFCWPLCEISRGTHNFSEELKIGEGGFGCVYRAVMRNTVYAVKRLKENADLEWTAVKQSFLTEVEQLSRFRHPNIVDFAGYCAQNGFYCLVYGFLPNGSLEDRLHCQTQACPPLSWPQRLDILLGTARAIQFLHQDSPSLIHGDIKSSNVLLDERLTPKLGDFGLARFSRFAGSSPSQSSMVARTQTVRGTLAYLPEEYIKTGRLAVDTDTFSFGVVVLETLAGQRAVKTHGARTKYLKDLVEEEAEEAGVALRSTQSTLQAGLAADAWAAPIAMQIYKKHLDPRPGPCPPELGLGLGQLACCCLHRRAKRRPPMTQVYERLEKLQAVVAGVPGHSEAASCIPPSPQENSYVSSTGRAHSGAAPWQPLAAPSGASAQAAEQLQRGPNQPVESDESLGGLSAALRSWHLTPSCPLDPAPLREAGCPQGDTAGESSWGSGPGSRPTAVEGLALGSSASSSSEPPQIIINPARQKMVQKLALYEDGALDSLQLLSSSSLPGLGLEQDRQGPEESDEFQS

[7] = molecular target: Mitogen-activated protein kinase kinase kinase kinase 5 (Homo sapiens) (UniProt Q9Y4K4); assay: Selectivity interaction (KinomeScan (DiscoverX)) EUB0001079a MAP4K5; conditions: at 1 µM
Sequence of Mitogen-activated protein kinase kinase kinase kinase 5 (Homo sapiens) (Q9Y4K4 whole entry, looked up): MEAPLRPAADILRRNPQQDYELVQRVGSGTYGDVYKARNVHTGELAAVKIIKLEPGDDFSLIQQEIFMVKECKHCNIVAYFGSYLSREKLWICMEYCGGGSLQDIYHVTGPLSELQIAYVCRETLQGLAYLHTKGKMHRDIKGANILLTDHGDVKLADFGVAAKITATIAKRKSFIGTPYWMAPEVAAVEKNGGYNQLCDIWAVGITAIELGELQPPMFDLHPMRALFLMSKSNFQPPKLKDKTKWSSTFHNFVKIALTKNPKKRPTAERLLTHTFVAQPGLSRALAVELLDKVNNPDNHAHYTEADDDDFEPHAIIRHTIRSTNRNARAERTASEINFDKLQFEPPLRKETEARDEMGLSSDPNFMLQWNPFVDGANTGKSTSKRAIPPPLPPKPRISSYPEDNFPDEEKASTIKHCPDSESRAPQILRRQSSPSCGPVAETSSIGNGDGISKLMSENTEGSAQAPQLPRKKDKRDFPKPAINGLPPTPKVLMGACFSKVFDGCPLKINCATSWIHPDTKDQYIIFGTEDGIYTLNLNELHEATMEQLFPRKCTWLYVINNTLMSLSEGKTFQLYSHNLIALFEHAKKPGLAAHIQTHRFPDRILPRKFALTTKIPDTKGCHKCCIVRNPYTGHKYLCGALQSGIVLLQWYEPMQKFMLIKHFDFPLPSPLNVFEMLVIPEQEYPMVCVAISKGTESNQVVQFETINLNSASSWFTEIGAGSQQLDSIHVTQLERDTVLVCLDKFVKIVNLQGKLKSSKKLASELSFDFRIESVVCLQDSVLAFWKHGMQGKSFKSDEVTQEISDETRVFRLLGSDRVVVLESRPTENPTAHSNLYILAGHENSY

[8] = molecular target: T4, Serine/threonine-protein kinase Nek3 (Homo sapiens) (UniProt P51956); assay: Selectivity interaction (KinomeScan (DiscoverX)) EUB0000618a NEK3; conditions: at 10 µM
T4 sequence (whole entry): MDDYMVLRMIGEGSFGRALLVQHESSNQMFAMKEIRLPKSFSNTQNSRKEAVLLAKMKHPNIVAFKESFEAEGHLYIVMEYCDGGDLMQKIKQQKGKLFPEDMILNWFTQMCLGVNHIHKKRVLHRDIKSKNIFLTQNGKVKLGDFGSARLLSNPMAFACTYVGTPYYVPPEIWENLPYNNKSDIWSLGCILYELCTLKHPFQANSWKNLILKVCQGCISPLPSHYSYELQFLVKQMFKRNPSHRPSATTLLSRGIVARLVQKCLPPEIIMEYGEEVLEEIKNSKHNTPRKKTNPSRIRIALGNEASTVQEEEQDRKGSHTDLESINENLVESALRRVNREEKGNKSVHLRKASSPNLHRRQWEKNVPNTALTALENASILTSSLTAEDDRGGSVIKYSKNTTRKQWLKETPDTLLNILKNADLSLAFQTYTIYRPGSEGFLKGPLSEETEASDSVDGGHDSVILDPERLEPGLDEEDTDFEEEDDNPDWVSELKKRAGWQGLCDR

[9] = molecular target: cAMP-dependent protein kinase catalytic subunit alpha (Homo sapiens, UniProt P17612); assay: Selectivity interaction (KinomeScan (DiscoverX)) EUB0000618a PRKACA; conditions: at 10 µM

Sequence of Myosin-IIIa (Homo sapiens) (Q8NEV4 whole entry): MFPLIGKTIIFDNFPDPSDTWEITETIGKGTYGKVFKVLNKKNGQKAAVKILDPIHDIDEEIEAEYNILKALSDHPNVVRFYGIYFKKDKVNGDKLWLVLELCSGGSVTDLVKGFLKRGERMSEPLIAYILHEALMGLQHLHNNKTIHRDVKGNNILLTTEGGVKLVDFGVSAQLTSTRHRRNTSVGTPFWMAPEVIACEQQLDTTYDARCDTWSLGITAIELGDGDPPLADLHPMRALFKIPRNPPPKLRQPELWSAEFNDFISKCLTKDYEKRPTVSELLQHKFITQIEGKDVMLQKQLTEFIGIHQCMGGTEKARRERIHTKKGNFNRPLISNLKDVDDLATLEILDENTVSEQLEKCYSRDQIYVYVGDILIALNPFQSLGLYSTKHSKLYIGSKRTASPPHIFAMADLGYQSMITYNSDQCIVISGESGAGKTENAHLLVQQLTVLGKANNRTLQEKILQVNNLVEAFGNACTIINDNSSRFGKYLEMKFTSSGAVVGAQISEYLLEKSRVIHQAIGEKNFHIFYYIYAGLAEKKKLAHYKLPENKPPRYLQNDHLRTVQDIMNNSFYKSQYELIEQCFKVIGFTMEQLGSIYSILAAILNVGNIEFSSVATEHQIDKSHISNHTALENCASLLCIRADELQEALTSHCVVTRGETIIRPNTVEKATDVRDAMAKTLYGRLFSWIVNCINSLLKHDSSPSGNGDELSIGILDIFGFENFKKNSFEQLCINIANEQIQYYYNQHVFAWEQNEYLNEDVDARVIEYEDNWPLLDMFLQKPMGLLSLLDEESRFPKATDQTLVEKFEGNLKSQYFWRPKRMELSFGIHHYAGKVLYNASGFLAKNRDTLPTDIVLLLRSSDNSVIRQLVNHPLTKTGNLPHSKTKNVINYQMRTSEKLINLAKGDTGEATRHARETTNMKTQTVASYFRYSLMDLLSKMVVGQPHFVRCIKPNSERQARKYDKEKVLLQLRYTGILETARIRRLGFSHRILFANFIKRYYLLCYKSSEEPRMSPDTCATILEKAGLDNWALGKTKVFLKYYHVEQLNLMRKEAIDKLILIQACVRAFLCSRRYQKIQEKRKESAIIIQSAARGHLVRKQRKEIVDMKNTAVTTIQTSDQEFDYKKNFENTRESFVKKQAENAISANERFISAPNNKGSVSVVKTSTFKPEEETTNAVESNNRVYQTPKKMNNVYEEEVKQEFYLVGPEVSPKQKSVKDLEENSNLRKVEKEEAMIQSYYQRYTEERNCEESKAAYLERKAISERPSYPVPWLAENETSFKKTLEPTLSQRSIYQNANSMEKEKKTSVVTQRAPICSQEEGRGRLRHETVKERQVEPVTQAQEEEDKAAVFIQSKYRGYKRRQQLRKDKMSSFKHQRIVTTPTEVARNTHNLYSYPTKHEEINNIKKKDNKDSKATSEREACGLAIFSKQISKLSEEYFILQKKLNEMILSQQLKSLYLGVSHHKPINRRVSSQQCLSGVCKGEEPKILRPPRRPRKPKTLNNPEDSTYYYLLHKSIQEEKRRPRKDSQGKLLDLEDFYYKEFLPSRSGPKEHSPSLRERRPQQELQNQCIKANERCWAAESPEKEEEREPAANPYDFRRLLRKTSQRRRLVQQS

SMILES: COc1cc(Nc2nc(C)cc(-c3cnn4nc(OC)ccc34)n2)cc(C(F)(F)F)c1
- % of control [1]: 87%

SMILES: CN(C)C/C=C/C(=O)Nc1ccc(C(=O)N2CCCC(Nc3ncc(Cl)c(-c4c[nH]c5ccccc45)n3)C2)cc1 (centres undefined)
- % of control [2]: 93%

- % of control [3]: 12%
SMILES: CN(C)CC#Cc1ccc2[nH]c3c(c2c1)-c1nc(N)ncc1CCC3

- % of control [4]: 0.168%
- % of inhibition [5]: -290%
SMILES: Cn1cc(-n2cnc3c(NCc4nc5cc(Cl)c(Cl)cc5[nH]4)nc(N4CCOCC4)nc32)cn1

SMILES: COc1cc(N(C)c2ccnc3ccc(C(F)(F)F)cc23)cc(OC)c1OC
- % binding [6]: 88%

SMILES: Nc1cnc(N2CCc3cc(S(=O)(=O)Nc4c(F)cc(Cl)cc4F)cc(N4CCCC4=O)c32)nc1 [TP-020n]
- % of control [7]: 73%

SMILES: O[C@H]1CC[C@H](Nc2ncc3nc(Nc4c(F)cc(F)cc4F)n([C@H]4CCOC4)c3n2)CC1
- % of control [8]: 100%
- % of control [9]: 100%
